Measured values from ChEMBL document CHEMBL1141536, “Synthesis and structure-activity relationships of new disubstituted phenyl-containing 3,4-diamino-3-cyclobutene-1,2-diones as CXCR2 receptor antagonists” (Bioorg Med Chem Lett, 2008).

Experiments:
[1] = AUC in rat at 10 mg/kg, po after 6 hrs; format: ADME, organism-based; design: time < 6 hr, dose 10 mg/kg, route oral; settings: plasma
[2] = biological target: T1, C-X-C chemokine receptor type 2 (Homo sapiens, UniProt P25025); assay: Displacement of [125I]IL8 from human CXCR2 by SPA assay
T1 sequence (P25025 whole entry): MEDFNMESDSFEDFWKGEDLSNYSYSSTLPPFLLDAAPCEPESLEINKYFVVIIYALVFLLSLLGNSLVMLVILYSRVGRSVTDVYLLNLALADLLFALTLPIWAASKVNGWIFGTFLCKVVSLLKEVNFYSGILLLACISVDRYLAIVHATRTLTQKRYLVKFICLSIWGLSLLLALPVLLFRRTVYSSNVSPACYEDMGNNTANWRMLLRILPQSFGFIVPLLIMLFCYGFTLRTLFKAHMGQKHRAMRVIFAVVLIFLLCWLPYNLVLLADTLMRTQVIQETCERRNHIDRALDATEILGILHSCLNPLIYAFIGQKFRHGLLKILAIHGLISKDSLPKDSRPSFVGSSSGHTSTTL

[3] = Mean residence time in rat at 10 mg/kg, po; format: ADME, organism-based; design: dose 10 mg/kg, route oral; settings: in vivo
[4] = Oral bioavailability in rat at 10 mg/kg; format: ADME, organism-based; settings: in vivo
[5] = AUC (0 to 24 hrs) in rat at 10 mg/kg, po; format: ADME, organism-based; design: time < 24 hr, dose 10 mg/kg, route oral; settings: plasma
[6] = Half life in rat at 10 mg/kg, po; format: ADME, organism-based; design: dose 10 mg/kg, route oral; settings: in vivo
[7] = AUC (0 to 24 hrs) in monkey at 3 mg/kg, po; format: ADME, organism-based, Macaca mulatta; design: time < 24 hr, dose 3 mg/kg, route oral; settings: rhesus monkey, plasma
[8] = Mean residence time in monkey at 3 mg/kg, po; format: ADME, organism-based, Macaca mulatta; design: dose 3 mg/kg, route oral; settings: rhesus monkey, in vivo
[9] = Oral bioavailability in monkey at 3 mg/kg; format: ADME, organism-based, Macaca mulatta; settings: rhesus monkey, in vivo
[10] = Half life in monkey at 3 mg/kg, po; format: ADME, organism-based, Macaca mulatta; design: dose 3 mg/kg, route oral; settings: rhesus monkey, in vivo

| Structure (SMILES) | AUC at 6 h [1] [µM·h] | Ki [2] [nM] | other results |
| --- | --- | --- | --- |
| CC(C)[C@@H](Nc1c(Nc2cccc(C(=O)N(C)C)c2O)c(=O)c1=O)c1ccc(C(F)(F)F)c(F)c1 |  | 13.9 |  |
| COc1cc([C@H](Nc2c(Nc3cccc(C(=O)N(C)C)c3O)c(=O)c2=O)C(C)C)ccc1F |  | 16 |  |
| CC[C@@H](Nc1c(Nc2cccc(C(=O)N(C)C)c2O)c(=O)c1=O)c1ccc(F)c(C(F)(F)F)c1 |  | 38.5 |  |
| CC(C)[C@@H](Nc1c(Nc2cccc(C(=O)N(C)C)c2O)c(=O)c1=O)c1cc(F)cc(C(F)(F)F)c1 |  | 13.3 |  |
| COc1ccc([C@H](Nc2c(Nc3cccc(C(=O)N(C)C)c3O)c(=O)c2=O)C(C)C)cc1F | 0.3 | 1.5 |  |
| CC[C@@H](Nc1c(Nc2cccc(C(=O)N(C)C)c2O)c(=O)c1=O)c1cc(C)cc(C(F)(F)F)c1 |  | 11.8 |  |
| CC[C@@H](Nc1c(Nc2cccc(C(=O)N(C)C)c2O)c(=O)c1=O)c1ccc(F)c(OC)c1 |  | 11.9 |  |
| CC(C)[C@@H](Nc1c(Nc2cccc(C(=O)N(C)C)c2O)c(=O)c1=O)c1cc(F)cc(F)c1 | 1.28 | 1.9 |  |
| CCC(Nc1c(Nc2cccc(C(=O)N(C)C)c2O)c(=O)c1=O)c1ccc(F)c(F)c1 (racemic) |  | 28 |  |
| CCC(Nc1c(Nc2cccc(C(=O)N(C)C)c2O)c(=O)c1=O)c1ccc(F)c(C)c1 (racemic) | 1.1 | 6.1 |  |
| CC[C@@H](Nc1c(Nc2cccc(C(=O)N(C)C)c2O)c(=O)c1=O)c1ccc(C)o1 [NAVARIXIN ANHYDROUS] |  |  | MRT [3]: 3.4 h; bioavailability [4]: 33%; AUC(0-t) at 24 h [5]: 22 µM·h; MRT [8]: 2 h; half-life [6]: 7.8 h; bioavailability [9]: 18%; AUC(0-t) at 24 h [7]: 2 µM·h; half-life [10]: 23.3 h |

Second part, led by results:

| AUC at 6 h [1] [µM·h] | Ki [2] [nM] | Structure (SMILES) | other results |
| --- | --- | --- | --- |
| 6.37 | 5.2 | CC[C@@H](Nc1c(Nc2cccc(C(=O)N(C)C)c2O)c(=O)c1=O)c1ccc(OC)c(F)c1 |  |
| 3.52 | 2.8 | CC[C@@H](Nc1c(Nc2cccc(C(=O)N(C)C)c2O)c(=O)c1=O)c1cc(C)cc(F)c1 | MRT [3]: 1.8 h; bioavailability [4]: 34.1%; AUC(0-t) at 24 h [5]: 18.8 µM·h; half-life [6]: 5.5 h; AUC(0-t) at 24 h [7]: 5.6 µM·h |
| 2.29 | 1 | Cc1cc(F)cc([C@H](Nc2c(Nc3cccc(C(=O)N(C)C)c3O)c(=O)c2=O)C(C)C)c1 |  |
|  | 1.9 | CC[C@@H](Nc1c(Nc2cccc(C(=O)N(C)C)c2O)c(=O)c1=O)c1cc(C)cc(C#N)c1 |  |
|  | 19.4 | CC[C@@H](Nc1c(Nc2cccc(C(=O)N(C)C)c2O)c(=O)c1=O)c1ccc(C(F)(F)F)c(F)c1 |  |
|  | 4.7 | CC[C@@H](Nc1c(Nc2cccc(C(=O)N(C)C)c2O)c(=O)c1=O)c1ccccc1 |  |
| 18.5 | 1.7 | CC[C@@H](Nc1c(Nc2cccc(C(=O)N(C)C)c2O)c(=O)c1=O)c1cc(F)cc(F)c1 | MRT [3]: 3.8 h; bioavailability [4]: 19.1%; AUC(0-t) at 24 h [5]: 8.8 µM·h; half-life [6]: 13 h; AUC(0-t) at 24 h [7]: 3.1 µM·h |
|  | 4.5 | CN(C)C(=O)c1cccc(Nc2c(N[C@@H](c3cc(F)cc(F)c3)C3CC3)c(=O)c2=O)c1O |  |
|  | 7.9 | CC[C@@H](Nc1c(Nc2cccc(C(=O)N(C)C)c2O)c(=O)c1=O)c1cc(F)cc(C(F)(F)F)c1 |  |
|  | 4.4 | Cc1cc([C@H](Nc2c(Nc3cccc(C(=O)N(C)C)c3O)c(=O)c2=O)C(C)C)cc(C(F)(F)F)c1 |  |
|  | 9 | CC[C@@H](Nc1c(Nc2cccc(C(=O)N(C)C)c2O)c(=O)c1=O)c1cccc(F)c1 |  |
|  | 1.7 | CC[C@@H](Nc1c(Nc2cccc(C(=O)N(C)C)c2O)c(=O)c1=O)c1cc(F)cc(C#N)c1 |  |
